The results in this text go back to patent US20250171428A1, “CRYSTALLINE FORMS OF 6-((5-METHYL-3-(6-METHYLPYRIDIN-3-YL)ISOXAZOL-4- YL)METHOXY)- N -(TETRAHYDRAPYRAN-4-YL)PYRIDAZINE-3-CARBOXAMIDE” (Hoffmann-La Roche Inc., priority 2022, published 2025).

Assay type in all cases: physicochemical
Series [1] is described as follows: Slurry of Form 4 in various solvents and solvent/water mixtures. The note with it: 20° C. to 60° C.
The nature of series [2]: Transformation of Form 4 at elevated temperature. The note with it: temperatures >110° C.
The nature of series [3]: Competing long-term slurry equilibration experiments including Form A and Form B. The conditions noted are these: competing slurries of Form A and Form B, various solvents, 5° C. to 65° C.; all conditions tested. As to the method:
The competing long-term slurry equilibration experiments including Form A and Form B were performed in various solvents in the temperature range from 5° C. to 65° C.

With `Cc1ccc(-c2noc(C)c2COc2ccc(C(=O)NC3CCOCC3)nn2)cn1` [Form 4, 6-((5-methyl-3-(6-methylpyridin-3-yl)isoxazol-4-yl)methoxy)-N-(tetrahydropyran-4-yl)pyridazine-3-carboxamide], the “solid form transformation in slurry” value in series [1] is given as “transform to Form B”. Also, the “solid form transformation on heating” value in series [2] is recorded as “transform to Form A”.
In the case of `Cc1ccc(-c2noc(C)c2COc2ccc(C(=O)NC3CCOCC3)nn2)cn1` [Form B, 6-((5-methyl-3-(6-methylpyridin-3-yl)isoxazol-4-yl)methoxy)-N-(tetrahydropyran-4-yl)pyridazine-3-carboxamide], the “stability of the crystalline form” value in series [3] was “superior stability”.
